Converted amounts (≈) assume the structure as drawn.
What was measured:
Aspergillus niger = test: Minimum inhibitory concentration, Aspergillus niger (An); assay type: cell-based, Aspergillus niger (CMI 17454); details: 30° C., 3, 7 and 10 days
Protocol: (§1) Inocula of the fungi Aspergillus niger, Cladosporium resinae and Chaetomium globosum were prepared containing 5×10^5 conidia/ml in a potato dextrose broth. The potato dextrose broth was prepared by suspending 4 g potato extract and 20 g dextrose in 1 liter of distilled water, warming to achieve solution, separating into aliquots and sterilising by autoclaving at 121° C. for 15 minutes.
(§2) Test procedures were as follows:
(§3) (ii) Dilution Series for Other Test Bacteria, Yeast and Filamentous Fungi
(§4) Dilution series from the stock solution of each compound were prepared in sterile distilled water. These contained 50, 100, 500 and 1000 ppm compound. To duplicate wells of a compartmentalised square petri dish 0.3 ml of each test compound concentration was added together with 2.7 ml of one of the microbial inocula described above. This gave final concentrations of the test compound of 5, 10, 50 and 100 ppm.
(§5) After incubation, in the dark, at 30° C. the wells were examined for the presence or absence of growth. Bacterial and yeast cultures were examined after 24 hours and 72 hours incubation and the fungi cultures after 3, 7 and 10 days.
(§6) By means of the above tests minimum inhibitory concentrations were determined for the various test compounds.

Chaetomium globosum = test: Minimum inhibitory concentration, Chaetomium globosum (Chg); assay type: cell-based
Protocol: as §1, §2, §3, §4, §5, §6

[1] = system: Pseudocercosporella herpotrichoides; test: In vitro activity against wheat eyespot (Ph); assay type: cell-based; design: Ph: activity against wheat eyespot: scale not given here; details: in vitro, 100 ppm in agar, 11 days; activity grade 1 or 2, not defined
In short: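 Compound was dispersed from acetone into half-strength potato dextrose agar at 100 ppm final. Two 5 mm mycelial plugs were placed on each plate, which was incubated 11 days at 20–22 °C in darkness. Diametric growth minus plug width was compared with acetone-only agar.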

Fusarium culmorum = test: Activity against seedling wheat blight, soil drench (Fs); assay type: in vivo; design: scale not given here; details: 10 kg/ha, 21 days, activity grade 1 or 2, not defined
In short: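 Wheat seeds (var Waggoner) soaked 6 h at 22° C in 7×10^5 spores/ml, sown in sand; 1 day later soil drench at 10 kg/ha (0.36 g/l in 12% v/v acetone/water). Glasshouse at 25° C; at 21 days, stem-base and upper-root lesions scored visually against control seedlings.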

Cladosporium resinae = test: Minimum inhibitory concentration, Cladosporium resinae (Cr); assay type: cell-based; details: Amorphotheca resinae, 30° C., 3, 7 and 10 days
Protocol: as §1, §2, §3, §4, §5, §6

Saccharomyces cerevisiae = test: Minimum inhibitory concentration, yeast (Sc); assay type: cell-based, Saccharomyces cerevisiae (ATCC 9763); details: 30° C., 24 and 72 hours
Protocol: Inocula of S. cerevisiae were prepared as for S. aureus, B. subtilis and E. coli, but using yeast malt broth in place of the typtone soya broth. The yeast malt broth was prepared by suspending 3 g yeast extract, 3 g malt extract, 5 g peptone and 10 g dextrose in 1 liter of distilled water, warming to achieve solution and sterilising by autoclaving at 121° C. for 15 minutes.
as §2, §3, §4, §5, §6

Bacillus subtilis = test: Minimum inhibitory concentration, Bacillus subtilis (Bs); assay type: cell-based; details: 30° C., 24 and 72 hours
Protocol: (§7) In respect of S. aureus, B. subtilis and E. coli, the microorganisms were cultured in 50 ml aliquots of a tryptone soya broth in 250 ml conical flasks at 30° C. on a rotary shaker at 200 rpm for 24 hours. Tryptone soya broth was prepared by adding 17 g pancreatic digest of casein, 3 g […] digest of soyabean meal, 5 g of sodium chloride, 2.5 g of dipotassium hydrogen phosphate and 2.5 g of dextrose to 1 liter of distilled water, mixing and sterilising by autoclaving at 121° C. for 15 minutes. 1 ml aliquots of the resulting cultures were mixed with 99 ml of fresh tryptone soya broth and used as inocula for tests. […] Test procedures were as follows: (ii) Dilution Series for Other Test Bacteria, Yeast and Filamentous Fungi Dilution series from the stock solution of each compound were prepared in sterile distilled water. These contained 50, 100, 500 and 1000 ppm compound. To duplicate wells of a compartmentalised square petri dish 0.3 ml of each test compound concentration was added together with 2.7 ml of one of the microbial inocula described above. […] After incubation, in the dark, at 30° C. the wells were examined for the presence or absence of growth. Bacterial and yeast cultures were examined after 24 hours and 72 hours incubation and the fungi cultures after 3, 7 and 10 days. By means of the above tests minimum inhibitory concentrations were determined for the various test compounds.

Staphylococcus aureus = test: Minimum inhibitory concentration, Staphylococcus aureus (Sa); assay type: cell-based, Staphylococcus aureus (NCIB 6571); details: 30° C., 24 and 72 hours
Protocol: as §7

Desulfovibrio sp. = test: Minimum inhibitory concentration, sulphate-reducing bacteria (Dsp); assay type: cell-based; details: 30° C., 2, 5 and 10 days
Protocol: The sulphate reducing bacteria Desulfovibrio sp. were cultured in a modified Postgate's Medium B for 48 hours at 30° C. and used directly as an inoculum. The modified Postgate's Medium B consisted of 0.5 g dipotassium hydrogen phosphate, 1 g ammonium chloride, 1 g sodium sulphate, 5 g sodium lactate, 1 g yeast extract, 0.1 ml thioglycolic acid, 0.1 ml ascorbic acid, 0.5 g ferrous sulphate heptahydrate, 750 ml aged seawater and 250 ml distilled water, pH adjusted to 7.8, divided into aliquots and sterilised by autoclaving at 121° C. for 15 minutes. […] Test procedures were as follows: (i) Suphate-reducing Bacteria Test Dilution Series Duplicate aliquots (9.9 ml) of dilution series from the stock solutions of each compound were prepared in a modified Postgate's Medium B described above. These contained 100 ppm compound. These were then inoculated with 0.1 ml of inoculum. After incubation at 30° C., the presence or absence of growth--as indicated by a blackening of the medium due to ferrous sulphide production--was recorded at 2, 5 and 10 days. […] By means of the above tests minimum inhibitory concentrations were determined for the various test compounds.

Escherichia coli = test: Minimum inhibitory concentration, Escherichia coli (Ec); assay type: cell-based, Escherichia coli (NCIB 9517); details: 30° C., 24 and 72 hours
Protocol: as §7

SMILES | MIC (Aspergillus niger) | MIC (Chaetomium globosum; 30° C., 3, 7 and 10 days) | Ph: activity against wheat eyespot [1] | Fs: activity against seedling wheat blight (Fusarium culmorum) | MIC (Cladosporium resinae) | MIC (Saccharomyces cerevisiae) | MIC (Bacillus subtilis) | MIC (Staphylococcus aureus) | MIC (Desulfovibrio sp.) | MIC (Escherichia coli) | MIC (Chaetomium globosum; *only tested at 100 ppm)
N#CN=[N+]([O-])c1cc(Cl)cc2c1OC(CO)C2 (stereo not drawn) [Example 11] | 25 µg/mL (≈ 98.6 µM) | 25 µg/mL (≈ 98.6 µM) | 2 | 2 | 50 µg/mL (≈ 197 µM) | 100 µg/mL (≈ 394 µM) | 25 µg/mL (≈ 98.6 µM) | 100 µg/mL (≈ 394 µM) | 100 µg/mL (≈ 394 µM) | 100 µg/mL (≈ 394 µM) | –
Cc1cc2cccc([N+]([O-])=NC#N)c2o1 [Example 16] | 50 µg/mL (≈ 249 µM) | – | 1 | 1 | > 100 µg/mL | 100 µg/mL (≈ 497 µM) | > 100 µg/mL | > 100 µg/mL | 50 to 100 µg/mL (≈ 249 to 497 µM) | > 100 µg/mL | –
N#CN=[N+]([O-])c1cccc2c3c(oc12)CCCC3 [Example 17] | < 5 µg/mL | < 100 µg/mL | 1 | 2 | 25 µg/mL (≈ 104 µM) | 50 µg/mL (≈ 207 µM) | > 100 µg/mL | 100 µg/mL (≈ 415 µM) | > 100 µg/mL | > 100 µg/mL | –
Cc1oc2c([N+]([O-])=NC#N)cccc2c1C [Example 18] | 100 µg/mL (≈ 465 µM) | 100 µg/mL (≈ 465 µM) | 1 | 2 | 100 µg/mL (≈ 465 µM) | 100 µg/mL (≈ 465 µM) | > 100 µg/mL | 5 µg/mL (≈ 23.2 µM) | > 100 µg/mL | > 100 µg/mL | –
Cc1cc2cc([N+]([O-])=NC#N)ccc2o1 [Example 23] | 25 µg/mL (≈ 124 µM) | – | 1 | 2 | 25 µg/mL (≈ 124 µM) | 25 µg/mL (≈ 124 µM) | 50 µg/mL (≈ 249 µM) | > 100 µg/mL | 100 µg/mL (≈ 497 µM) | > 100 µg/mL | < 100 µg/mL
N#CN=[N+]([O-])c1cc(Cl)cc2c1OCC=C2 [Example 26] | 25 to 50 µg/mL (≈ 106 to 212 µM) | 50 µg/mL (≈ 212 µM) | 1 | 2 | 25 to 100 µg/mL (≈ 106 to 424 µM) | > 100 µg/mL | 50 µg/mL (≈ 212 µM) | 100 µg/mL (≈ 424 µM) | 100 µg/mL (≈ 424 µM) | > 100 µg/mL | –
CC1(C)C=Cc2cc(F)cc([N+]([O-])=NC#N)c2O1 [Example 29] | 25 to 100 µg/mL (≈ 101 to 404 µM) | 5 to 100 µg/mL (≈ 20.2 to 404 µM) | 2 | 2 | 50 to 100 µg/mL (≈ 202 to 404 µM) | 50 µg/mL (≈ 202 µM) | 100 µg/mL (≈ 404 µM) | > 100 µg/mL | > 100 µg/mL | > 100 µg/mL | –
